# Experimental data from patent publication US20240238316A1, “C[…]” (priority 2021, published 2024).
# Assay: solvents tested for dissolving the acid and the cannabinoid
# Assay type: physicochemical
# Conditions: compared with other solvents, including other alcohols
# Protocol: Various solvents are tested, including other alcohols.
compound,measurement,value
CC(O)CO (stereo not shown) [Propylene glycol],dissolution of the acid and the cannabinoid in the solvent,dissolve both the acid and the cannabinoid efficiently and without excessive heating
